In PMC5218480 (PLoS ONE, 2017):

Test system: MV-4-11 cells
Assay: Gene expression microarray analysis (Affymetrix PrimeView) and GSEA
Format: cell-based, human
Parameters: RFU PODN (11730768_x_at) / Fold change /veh PODN (11730768_x_at) / RFU LINC00158 (11744669_a_at) / Fold change /veh LINC00158 (11744669_a_at) / RFU DUSP10 (11751237_a_at) / Fold change /veh DUSP10 (11751237_a_at) / RFU ID3 (11757404_x_at) / Fold change /veh ID3 (11757404_x_at) / RFU PLEKHG5 (11737974_s_at) / Fold change /veh PLEKHG5 (11737974_s_at) / RFU LRRC4B (11730491_at) / Fold change /veh LRRC4B (11730491_at) / RFU GIMAP4 (11747438_a_at) / Fold change /veh GIMAP4 (11747438_a_at) / RFU KRT8 (11758183_x_at) / Fold change /veh KRT8 (11758183_x_at) / RFU CNN1 (11734310_a_at) / Fold change /veh CNN1 (11734310_a_at) / RFU VPS37D (11726825_at) / Fold change /veh VPS37D (11726825_at) / RFU C10orf10 (11716522_x_at) / Fold change /veh C10orf10 (11716522_x_at) / RFU KIR2DL2 /// KIR2DL4 /// KIR2DL5A /// KIR2DL5B /// KIR2DS1 /// KIR2DS2 /// KIR2DS3 /// KIR2DS4 /// KIR3DL3 /// KIR3DL3 /// KIR3DS1 (11738374_at) / Fold change /veh KIR2DL2 /// KIR2DL4 /// KIR2DL5A /// KIR2DL5B /// KIR2DS1 /// KIR2DS2 /// KIR2DS3 /// KIR2DS4 /// KIR3DL3 /// KIR3DL3 /// KIR3DS1 (11738374_at) / RFU C1QL1 (11718748_at) / Fold change /veh C1QL1 (11718748_at) / RFU TMPRSS4 (11747572_a_at) / Fold change /veh TMPRSS4 (11747572_a_at) / RFU HAMP (11756126_x_at) / Fold change /veh HAMP (11756126_x_at) / RFU RNFT2 (11725882_a_at) / Fold change /veh RNFT2 (11725882_a_at) / RFU NR4A2 (11747474_a_at) / Fold change /veh NR4A2 (11747474_a_at) / RFU ABCC12 (11746883_a_at) / Fold change /veh ABCC12 (11746883_a_at) / RFU TMEM136 (11760407_x_at) / Fold change /veh TMEM136 (11760407_x_at) / RFU CLDN22 /// WWC2 (11732394_at) / Fold change /veh CLDN22 /// WWC2 (11732394_at) / RFU HLA-DPB1 (11760878_x_at) / Fold change /veh HLA-DPB1 (11760878_x_at) / RFU SPINT1 (11716480_a_at) / Fold change /veh SPINT1 (11716480_a_at) / RFU GAP43 (11754022_s_at) / Fold change /veh GAP43 (11754022_s_at) / RFU A4GNT (11735810_at) / Fold change /veh A4GNT (11735810_at) / RFU PRB3 (11715151_x_at) / Fold change /veh PRB3 (11715151_x_at) / RFU TUBB4B (11761932_at) / Fold change /veh TUBB4B (11761932_at) / RFU CAPN14 (11732068_a_at) / Fold change /veh CAPN14 (11732068_a_at) / RFU TMCC2 (11721928_a_at) / Fold change /veh TMCC2 (11721928_a_at) / RFU IRGQ (11745062_a_at) / Fold change /veh IRGQ (11745062_a_at) / RFU FAM174B (11720279_a_at) / Fold change /veh FAM174B (11720279_a_at) / RFU TMPRSS4 (11748680_a_at) / Fold change /veh TMPRSS4 (11748680_a_at) / RFU FAM212B (11763350_a_at) / Fold change /veh FAM212B (11763350_a_at) / RFU PLEKHG5 (11743358_a_at) / Fold change /veh PLEKHG5 (11743358_a_at) / RFU ZSCAN30 (11745921_a_at) / Fold change /veh ZSCAN30 (11745921_a_at) / RFU CMKLR1 (11741424_a_at) / Fold change /veh CMKLR1 (11741424_a_at) / RFU LOC101060620 /// MAPK8IP1 (11723275_at) / Fold change /veh LOC101060620 /// MAPK8IP1 (11723275_at) / RFU SPTSSB (11747773_x_at) / Fold change /veh SPTSSB (11747773_x_at) / RFU PRSS12 (11739890_at) / Fold change /veh PRSS12 (11739890_at) / RFU BIN1 (11741810_x_at) / Fold change /veh BIN1 (11741810_x_at) / RFU WNT11 (11732464_a_at) / Fold change /veh WNT11 (11732464_a_at) / RFU C10orf10 (11716521_a_at) / Fold change /veh C10orf10 (11716521_a_at) / RFU C5orf56 (11738089_at) / Fold change /veh C5orf56 (11738089_at) / RFU CYB561 (11721691_x_at) / Fold change /veh CYB561 (11721691_x_at) / RFU ANKRD19P (11752326_a_at) / Fold change /veh ANKRD19P (11752326_a_at) / RFU OR2T12 /// OR2T33 /// OR2T8 (11738714_s_at) / Fold change /veh OR2T12 /// OR2T33 /// OR2T8 (11738714_s_at) / RFU VCAN (11748164_a_at) / Fold change /veh VCAN (11748164_a_at) / RFU JSRP1 (11732532_at) / Fold change /veh JSRP1 (11732532_at) / RFU KRTAP10-11 (11738290_x_at) / Fold change /veh KRTAP10-11 (11738290_x_at) / RFU MYO3A (11730013_a_at) / Fold change /veh MYO3A (11730013_a_at) / RFU EBF3 (11725865_a_at) / Fold change /veh EBF3 (11725865_a_at) / RFU CAMK2N1 (11719241_x_at) / Fold change /veh CAMK2N1 (11719241_x_at) / RFU C5orf56 (11738088_a_at) / Fold change /veh C5orf56 (11738088_a_at) / RFU OLFML3 (11715873_a_at) / Fold change /veh OLFML3 (11715873_a_at) / RFU LOC100653217 /// NTM (11731650_a_at) / Fold change /veh LOC100653217 /// NTM (11731650_a_at) / RFU MAPK11 (11762145_a_at) / Fold change /veh MAPK11 (11762145_a_at) / RFU FIZ1 (11724087_x_at) / Fold change /veh FIZ1 (11724087_x_at) / RFU OASL (11726364_x_at) / Fold change /veh OASL (11726364_x_at) / RFU SOX15 (11748057_x_at) / Fold change /veh SOX15 (11748057_x_at) / RFU CD79A (11719716_a_at) / Fold change /veh CD79A (11719716_a_at) / RFU HIST1H1D (11736915_at) / Fold change /veh HIST1H1D (11736915_at) / RFU CASKIN2 (11723855_a_at) / Fold change /veh CASKIN2 (11723855_a_at) / RFU LOC730098 (11760151_x_at) / Fold change /veh LOC730098 (11760151_x_at) / RFU OR4N2 (11742367_at) / Fold change /veh OR4N2 (11742367_at) / RFU PRRT2 (11749266_a_at) / Fold change /veh PRRT2 (11749266_a_at) / RFU SNX32 (11753110_a_at) / Fold change /veh SNX32 (11753110_a_at) / RFU CDHR5 (11726645_a_at) / Fold change /veh CDHR5 (11726645_a_at) / RFU RCAN1 (11760418_a_at) / Fold change /veh RCAN1 (11760418_a_at) / RFU FAM167A (11723789_a_at) / Fold change /veh FAM167A (11723789_a_at) / RFU FAM26E (11764081_at) / Fold change /veh FAM26E (11764081_at) / RFU ISYNA1 (11749810_s_at) / Fold change /veh ISYNA1 (11749810_s_at) / RFU ACY1 (11761880_at) / Fold change /veh ACY1 (11761880_at) / RFU 11764098_at / Fold change /veh 11764098_at / RFU SAMD14 (11745864_x_at) / Fold change /veh SAMD14 (11745864_x_at) / RFU NPB (11741838_a_at) / Fold change /veh NPB (11741838_a_at) / RFU TMPRSS6 (11731388_a_at) / Fold change /veh TMPRSS6 (11731388_a_at) / RFU KRTAP10-2 (11738614_at) / Fold change /veh KRTAP10-2 (11738614_at) / RFU ARHGAP8 /// PRR5-ARHGAP8 (11727945_x_at) / Fold change /veh ARHGAP8 /// PRR5-ARHGAP8 (11727945_x_at) / RFU KRTAP5-7 /// NADSYN1 (11734609_at) / Fold change /veh KRTAP5-7 /// NADSYN1 (11734609_at) / RFU RASL12 (11751679_a_at) / Fold change /veh RASL12 (11751679_a_at) / RFU CDKN2B (11736163_a_at) / Fold change /veh CDKN2B (11736163_a_at) / RFU PRF1 (11729649_at) / Fold change /veh PRF1 (11729649_at) / RFU, ZNF638 /// ZNF638-IT1 / Fold change vs veh, ZNF638 /// ZNF638-IT1 / RFU, PANK3 / Fold change vs veh, PANK3 / RFU, SH3YL1 / Fold change vs veh, SH3YL1 / RFU, ZEB2 / Fold change vs veh, ZEB2 / RFU, NRIP1 / Fold change vs veh, NRIP1 / RFU, PTTG1IP / Fold change vs veh, PTTG1IP / RFU, CAPN2 / Fold change vs veh, CAPN2 / RFU, MED14 / Fold change vs veh, MED14 / RFU, SNORA58 / Fold change vs veh, SNORA58 / RFU, C1orf63 / Fold change vs veh, C1orf63 / RFU, LRRFIP1 / Fold change vs veh, LRRFIP1 / RFU, NDUFAF7 / Fold change vs veh, NDUFAF7 / RFU, SLC12A2 / Fold change vs veh, SLC12A2 / RFU, IBTK / Fold change vs veh, IBTK / RFU, ESF1 / Fold change vs veh, ESF1 / Fold change vs veh, TMEM50B / RFU, TAOK1 / Fold change vs veh, TAOK1 / RFU, ACBD3 / Fold change vs veh, ACBD3 / RFU, TMA16 / Fold change vs veh, TMA16 / RFU, RWDD3 / Fold change vs veh, RWDD3 / RFU, BCAT1 / Fold change vs veh, BCAT1 / RFU, EDEM3 / Fold change vs veh, EDEM3 / RFU, TMEM33 / Fold change vs veh, TMEM33 / RFU, WDR75 / Fold change vs veh, WDR75 / RFU, AHCTF1 / Fold change vs veh, AHCTF1 / RFU, TFRC / Fold change vs veh, TFRC / RFU, ZDHHC17 / Fold change vs veh, ZDHHC17 / RFU, NOM1 / Fold change vs veh, NOM1 / RFU, ARL8B / Fold change vs veh, ARL8B / RFU, ZBTB11 / Fold change vs veh, ZBTB11 / RFU, TAMM41 / Fold change vs veh, TAMM41 / RFU, KIAA1704 /// LOC100996395 / Fold change vs veh, KIAA1704 /// LOC100996395 / RFU, ING1 / Fold change vs veh, ING1 / RFU, TRMT61B / Fold change vs veh, TRMT61B / RFU, FUBP3 / Fold change vs veh, FUBP3 / RFU, TP53 / Fold change vs veh, TP53 / RFU, TNKS2 / Fold change vs veh, TNKS2 / RFU, ZFP14 / Fold change vs veh, ZFP14 / RFU, ACTR2 / Fold change vs veh, ACTR2 / RFU, PPP3R1 / Fold change vs veh, PPP3R1 / RFU, PIK3R1 / Fold change vs veh, PIK3R1 / RFU, HNRNPA1 / Fold change vs veh, HNRNPA1 / RFU, RNF170 / Fold change vs veh, RNF170 / RFU, ZNF28 / Fold change vs veh, ZNF28 / RFU, RNGTT / Fold change vs veh, RNGTT / RFU, OGT / Fold change vs veh, OGT / RFU, BRD1 / Fold change vs veh, BRD1 / RFU, MARS / Fold change vs veh, MARS / RFU, ZNF655 / Fold change vs veh, ZNF655 / RFU, FAHD1 / Fold change vs veh, FAHD1 / RFU, BDP1 / Fold change vs veh, BDP1 / RFU, LRRCC1 / Fold change vs veh, LRRCC1 / RFU, ARID1A / Fold change vs veh, ARID1A / RFU, ZNF146 / Fold change vs veh, ZNF146 / RFU, ZNF330 / Fold change vs veh, ZNF330 / RFU, GPN3 / Fold change vs veh, GPN3 / RFU, C9orf123 / Fold change vs veh, C9orf123 / RFU, N4BP2L2 / Fold change vs veh, N4BP2L2 / RFU, ARFIP1 / Fold change vs veh, ARFIP1 / RFU, FAM179B / Fold change vs veh, FAM179B / RFU, BCL10 / Fold change vs veh, BCL10 / RFU, UHRF1BP1L / Fold change vs veh, UHRF1BP1L / RFU, BET1 / Fold change vs veh, BET1 / RFU, CNOT2 / Fold change vs veh, CNOT2 / RFU, ZNF268 / Fold change vs veh, ZNF268 / Fold change vs veh, ZNF507 / RFU, DGCR2 / Fold change vs veh, DGCR2 / RFU, WDSUB1 / Fold change vs veh, WDSUB1 / Fold change vs veh, HSP90B1 /// MIR3652 / RFU, ADSS / Fold change vs veh, ADSS / RFU, GK / Fold change vs veh, GK / RFU, ZNF148 / Fold change vs veh, ZNF148 / RFU, TAF9 / Fold change vs veh, TAF9 / RFU, SLC1A5 / Fold change vs veh, SLC1A5 / RFU, SLMO2 / Fold change vs veh, SLMO2 / RFU, ABCC4 / Fold change vs veh, ABCC4 / RFU, LOC101060439 /// RAP1B / Fold change vs veh, LOC101060439 /// RAP1B / RFU, RFX7 / Fold change vs veh, RFX7 / RFU, GTPBP10 / Fold change vs veh, GTPBP10 / RFU, CNEP1R1 / Fold change vs veh, CNEP1R1 / RFU, BIVM-ERCC5 /// ERCC5 / Fold change vs veh, BIVM-ERCC5 /// ERCC5 / RFU, ILF3 / Fold change vs veh, ILF3 / RFU 11762660_at / Fold change /veh 11762660_at / RFU VCAN (11757783_s_at) / Fold change /veh VCAN (11757783_s_at) / RFU DDX43 (11728927_at) / Fold change /veh DDX43 (11728927_at) / RFU KRT8 (11758188_x_at) / Fold change /veh KRT8 (11758188_x_at) / RFU NKD1 (11759106_at) / Fold change /veh NKD1 (11759106_at) / RFU SRD5A1 (11742802_a_at) / Fold change /veh SRD5A1 (11742802_a_at) / RFU TPSAB1 /// TPSB2 (11721975_s_at) / Fold change /veh TPSAB1 /// TPSB2 (11721975_s_at) / RFU GSTM3 (11746129_a_at) / Fold change /veh GSTM3 (11746129_a_at) / RFU IL23R (11737362_x_at) / Fold change /veh IL23R (11737362_x_at) / RFU TMEM51 (11727254_a_at) / Fold change /veh TMEM51 (11727254_a_at) / RFU PIWIL2 (11732686_x_at) / Fold change /veh PIWIL2 (11732686_x_at) / RFU ORM1 (11744905_x_at) / Fold change /veh ORM1 (11744905_x_at) / RFU CCDC152 (11743942_at) / Fold change /veh CCDC152 (11743942_at) / RFU ECM1 (11717891_a_at) / Fold change /veh ECM1 (11717891_a_at) / RFU IL23R (11748794_a_at) / Fold change /veh IL23R (11748794_a_at) / RFU TNFAIP8L3 (11732012_x_at) / Fold change /veh TNFAIP8L3 (11732012_x_at) / RFU MBOAT4 (11741988_at) / Fold change /veh MBOAT4 (11741988_at) / RFU 11764193_at / Fold change /veh 11764193_at / RFU TMEM53 (11763286_at) / Fold change /veh TMEM53 (11763286_at) / RFU MAGEB2 (11727129_at) / Fold change /veh MAGEB2 (11727129_at) / RFU TMEM200A (11744735_a_at) / Fold change /veh TMEM200A (11744735_a_at) / RFU CCDC152 (11751479_a_at) / Fold change /veh CCDC152 (11751479_a_at) / RFU FAM211A (11726209_a_at) / Fold change /veh FAM211A (11726209_a_at) / RFU RGS16 (11746705_a_at) / Fold change /veh RGS16 (11746705_a_at) / RFU VCAN (11755009_s_at) / Fold change /veh VCAN (11755009_s_at) / RFU RHOB (11743442_s_at) / Fold change /veh RHOB (11743442_s_at) / RFU RGS16 (11720943_a_at) / Fold change /veh RGS16 (11720943_a_at) / RFU RGS16 (11720944_at) / Fold change /veh RGS16 (11720944_at) / RFU, VPS4B / Fold change vs veh, VPS4B / RFU, CREB1 / Fold change vs veh, CREB1 / RFU, DNAJC13 / Fold change vs veh, DNAJC13 / RFU, GNAQ / Fold change vs veh, GNAQ / RFU, CDK5R1 / Fold change vs veh, CDK5R1 / RFU, ZRANB3 / Fold change vs veh, ZRANB3 / RFU, CUL4A / Fold change vs veh, CUL4A / RFU, CCNY / Fold change vs veh, CCNY / RFU, UFL1 / Fold change vs veh, UFL1 / RFU, COG3 / Fold change vs veh, COG3 / RFU, DIAPH2 / Fold change vs veh, DIAPH2 / RFU, SKA2 / Fold change vs veh, SKA2 / RFU, AFF3 / Fold change vs veh, AFF3 / RFU, LMF1 / Fold change vs veh, LMF1 / RFU, IPO11 / Fold change vs veh, IPO11 / RFU, DFFB / Fold change vs veh, DFFB / RFU, FOXP1 / Fold change vs veh, FOXP1 / RFU, CARD8 / Fold change vs veh, CARD8 / RFU, STRN3 / Fold change vs veh, STRN3 / RFU, ADK / Fold change vs veh, ADK / RFU, RASSF2 / Fold change vs veh, RASSF2 / RFU, WIPF1 / Fold change vs veh, WIPF1 / RFU, LARP1B / Fold change vs veh, LARP1B / RFU, RASA1 / Fold change vs veh, RASA1 / RFU, RB1 / Fold change vs veh, RB1 / RFU, PPFIA1 / Fold change vs veh, PPFIA1 / RFU, MAT2A / Fold change vs veh, MAT2A / RFU, CCT5 / Fold change vs veh, CCT5 / RFU, WDR92 / Fold change vs veh, WDR92 / RFU, CUX1 / Fold change vs veh, CUX1 / RFU, TTC7A / Fold change vs veh, TTC7A / RFU, TMEM135 / Fold change vs veh, TMEM135 / RFU, DEPTOR / Fold change vs veh, DEPTOR / RFU, CPM / Fold change vs veh, CPM / RFU, DNAJB6 / Fold change vs veh, DNAJB6 / RFU, CACNA2D3 / Fold change vs veh, CACNA2D3 / RFU, DTX4 / Fold change vs veh, DTX4 / RFU, TFCP2 / Fold change vs veh, TFCP2 / RFU, GMCL1 /// GMCL1P1 / Fold change vs veh, GMCL1 /// GMCL1P1 / RFU, AEBP2 / Fold change vs veh, AEBP2 / RFU, SNHG1 /// SNORD22 /// SNORD25 /// SNORD26 /// SNORD27 /// SNORD28 /// SNORD29 /// SNORD31 / Fold change vs veh, SNHG1 /// SNORD22 /// SNORD25 /// SNORD26 /// SNORD27 /// SNORD28 /// SNORD29 /// SNORD31 / Fold change (Aza/veh), C12orf56 (ProbeSet 11735607_a_at) / Fold change (ACY-1035/veh), C12orf56 (ProbeSet 11735607_a_at) / Fold change (Aza/veh), FGFR1OP (ProbeSet 11751329_s_at) / Fold change (ACY-1035/veh), FGFR1OP (ProbeSet 11751329_s_at) / Fold change (Aza/veh), VPS36 (ProbeSet 11739960_a_at) / Fold change (ACY-1035/veh), VPS36 (ProbeSet 11739960_a_at) / RFU SYPL1 (11715823_x_at) / Fold change /veh SYPL1 (11715823_x_at) / RFU IGFBP7 (11715501_s_at) / Fold change /veh IGFBP7 (11715501_s_at) / RFU REEP3 (11722064_at) / Fold change /veh REEP3 (11722064_at) / RFU IGLL1 (11728026_x_at) / Fold change /veh IGLL1 (11728026_x_at): dose or concentration left out as unconfirmed
Details: MV-4-11 cells, 48 hours

Nc1ncn([C@@H]2O[C@H](CO)[C@@H](O)[C@H]2O)c(=O)n1 [azacitidine]
Fold change /veh C10orf10 (11716522_x_at): 1.15
